In PubChem BioAssay AID256 (DTP/NCI, 2004):
Several values for one entry are separate records, joined by “and”; a condition that tells them apart may be missing. Identical values can stand only once. Toxic doses and inconclusive results are not listed. Rule for the calls: active = survival T/C of 150% or more; inactive = T/C below 125% in these data.

System: CD2F1 mice, L1210 leukemia ip, survival T/C
Experiment: NCI In Vivo Anticancer Drug Screen. Data for tumor model L1210 Leukemia (intraperitoneal) in CD2F1 (CDF1) mice
Conditions: higher = longer survival
Outline: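 Read-out first: treated-group measurement over vehicle-control measurement, expressed as a ratio. Animals bore a transplanted tumor line and were dosed with compound or vehicle.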

[1] = endpoint: mean survival time, dose: 100.0 mg/kg/injection, schedule: Q01DX001 (ip), vehicle: saline with Tween-80
[2] = endpoint: mean survival time, dose: 200.0 mg/kg/injection, schedule: Q01DX001 (ip), vehicle: saline with Tween-80
[3] = endpoint: mean survival time, dose: 400.0 mg/kg/injection, schedule: Q01DX001 (ip), vehicle: saline with Tween-80
[4] = endpoint: mean survival time, dose: 100.0 mg/kg/injection, schedule: Q01DX009 (ip), vehicle: saline with Tween-80
[5] = endpoint: mean survival time, dose: 100.0 mg/kg/injection, schedule: Q04DX003 (ip), vehicle: saline with Tween-80
[6] = endpoint: mean survival time, dose: 200.0 mg/kg/injection, schedule: Q01DX009 (ip), vehicle: saline with Tween-80
[7] = endpoint: mean survival time, dose: 200.0 mg/kg/injection, schedule: Q04DX003 (ip), vehicle: saline with Tween-80
[8] = endpoint: mean survival time, dose: 400.0 mg/kg/injection, schedule: Q01DX009 (ip), vehicle: saline with Tween-80
[9] = endpoint: mean survival time, dose: 400.0 mg/kg/injection, schedule: Q04DX003 (ip), vehicle: saline with Tween-80
[10] = endpoint: mean survival time, dose: 50.0 mg/kg/injection, schedule: Q01DX009 (ip), vehicle: saline with Tween-80
[11] = endpoint: mean survival time, dose: 100.0 mg/kg/injection, schedule: Q04DX002 (ip), vehicle: saline with Tween-80
[12] = endpoint: mean survival time, dose: 200.0 mg/kg/injection, schedule: Q04DX002 (ip), vehicle: saline with Tween-80
[13] = endpoint: mean survival time, dose: 400.0 mg/kg/injection, schedule: Q04DX002 (ip), vehicle: saline with Tween-80

Measured: T/C

O=C1c2ccccc2C(=O)N1CCBr
inactive: [1] 102 % of control | [2] 109 % of control | [3] 111 % of control

CCOC(=O)/C=C1\NC(=O)CS1
inactive: [4] 97 % of control | [5] 100 % of control | [6] 95 % of control | [7] 100 % of control | [8] 103 % of control | [9] 100 % of control

O=c1ccn2cnc3c(ncn3C3OC(CO)C(O)C3O)c2n1 (stereo not given)
inactive: endpoint: median survival time, dose: 12.5 mg/kg/injection, schedule: Q01DX005 (ip), vehicle: saline with Tween-80 105 % of control | endpoint: median survival time, dose: 25.0 mg/kg/injection, schedule: Q01DX005 (ip), vehicle: saline with Tween-80 98 % of control | endpoint: median survival time, dose: 50.0 mg/kg/injection, schedule: Q01DX005 (ip), vehicle: saline with Tween-80 98 % of control | endpoint: median survival time, dose: 100.0 mg/kg/injection, schedule: Q01DX005 (ip), vehicle: saline with Tween-80 103 % of control | endpoint: median survival time, dose: 200.0 mg/kg/injection, schedule: Q01DX005 (ip), vehicle: saline with Tween-80 103 % of control

Cc1cccc2c(CBr)cc(=O)[nH]c12
inactive: endpoint: mean survival time, dose: 12.5 mg/kg/injection, schedule: Q04DX003 (ip), vehicle: saline with Tween-80 101 % of control | endpoint: mean survival time, dose: 25.0 mg/kg/injection, schedule: Q04DX003 (ip), vehicle: saline with Tween-80 101 % of control | endpoint: mean survival time, dose: 50.0 mg/kg/injection, schedule: Q04DX003 (ip), vehicle: saline with Tween-80 101 % of control

C=CC1CC(=O)N1 (stereo not given)
inactive: endpoint: mean survival time, dose: 75.0 mg/kg/injection, schedule: Q01DX009 (ip), vehicle: saline 102 % of control | endpoint: mean survival time, dose: 75.0 mg/kg/injection, schedule: Q04DX003 (ip), vehicle: saline 97 % of control | endpoint: mean survival time, dose: 150.0 mg/kg/injection, schedule: Q01DX009 (ip), vehicle: saline 103 % of control | endpoint: mean survival time, dose: 150.0 mg/kg/injection, schedule: Q04DX003 (ip), vehicle: saline 101 % of control | endpoint: mean survival time, dose: 300.0 mg/kg/injection, schedule: Q01DX009 (ip), vehicle: saline 103 % of control | endpoint: mean survival time, dose: 300.0 mg/kg/injection, schedule: Q04DX003 (ip), vehicle: saline 95 % of control

CCCCCCCCCCCCCCCCCC[N+](CC)(CC)CC
inactive: endpoint: mean survival time, dose: 0.75 mg/kg/injection, schedule: Q01DX001 (ip), vehicle: Klucel (hydroxypropylcellulose) (HPC) 91 % of control | endpoint: mean survival time, dose: 1.5 mg/kg/injection, schedule: Q01DX001 (ip), vehicle: Klucel (hydroxypropylcellulose) (HPC) 108 % of control | endpoint: mean survival time, dose: 3.0 mg/kg/injection, schedule: Q01DX001 (ip), vehicle: Klucel (hydroxypropylcellulose) (HPC) 100 % of control

Cc1ccc(S(=O)(=O)OCC2C(COS(=O)(=O)c3ccc(C)cc3)C3CCC2C2C3C3C2C2(C)C(=O)C3(C)C(c3ccccc3)=C2c2ccccc2)cc1 (stereo not given)
inactive: endpoint: mean survival time, dose: 100.0 mg/kg/injection, schedule: Q04DX002 (ip), vehicle: other 102 % of control | endpoint: mean survival time, dose: 200.0 mg/kg/injection, schedule: Q04DX002 (ip), vehicle: other 102 % of control | endpoint: mean survival time, dose: 400.0 mg/kg/injection, schedule: Q04DX002 (ip), vehicle: other 111 % of control

CC(C)OC(=O)Nc1cc(F)cc(C(F)(F)F)c1F
inactive: [4] 94 % of control | [6] 97 % of control | [8] 97 % of control

CSc1nc2cc(C)c(C)cc2[nH]1
inactive: [1] 103 % of control | [4] 97 % of control | [2] 97 % of control | [6] 97 % of control | [3] 105 % of control | [8] 94 % of control

C/C(=N/O)c1cc(CN(C)C)oc1C
inactive: [10] 92 % of control | [1] 113 % of control | [4] 90 % of control | [2] 101 % of control | [6] 91 % of control

c1ccc(C(=NCCN=C(c2ccccc2)c2ccccc2)c2ccccc2)cc1
inactive: [4] 97 % of control | [5] 97 % of control | [6] 92 % of control | [7] 97 % of control | [8] 95 % of control | [9] 97 % of control

CCCCN(C)N=Nc1ccc(C(N)=O)cc1
inactive: endpoint: mean survival time, dose: 18.75 mg/kg/injection, schedule: Q01DX009 (ip), vehicle: Klucel (hydroxypropylcellulose) (HPC) 107 % of control | endpoint: mean survival time, dose: 37.5 mg/kg/injection, schedule: Q01DX009 (ip), vehicle: Klucel (hydroxypropylcellulose) (HPC) 113 % of control | endpoint: mean survival time, dose: 75.0 mg/kg/injection, schedule: Q01DX009 (ip), vehicle: Klucel (hydroxypropylcellulose) (HPC) 121 % of control | endpoint: mean survival time, dose: 150.0 mg/kg/injection, schedule: Q01DX009 (ip), vehicle: Klucel (hydroxypropylcellulose) (HPC) 106 % of control

C=C(C)CC1(CC)C(=O)NC(=S)NC1=O
inactive: [10] 102 % of control | [4] 101 % of control

CN(C)CCNc1cccc2c1C(=O)c1cccc(NCCN(C)C)c1C2=O
inactive: endpoint: mean survival time, dose: 1.88 mg/kg/injection, schedule: Q01DX009 (ip), vehicle: saline 94 % of control | endpoint: mean survival time, dose: 3.75 mg/kg/injection, schedule: Q01DX009 (ip), vehicle: saline 96 % of control | endpoint: mean survival time, dose: 7.5 mg/kg/injection, schedule: Q01DX009 (ip), vehicle: saline 104 % of control | endpoint: mean survival time, dose: 15.0 mg/kg/injection, schedule: Q01DX009 (ip), vehicle: saline 104 % of control | endpoint: mean survival time, dose: 30.0 mg/kg/injection, schedule: Q01DX009 (ip), vehicle: saline 104 % of control

CN(C)Cc1cc(OCc2ccccc2)cc(CN(C)C)c1O
inactive: endpoint: mean survival time, dose: 75.0 mg/kg/injection, schedule: Q01DX001 (ip), vehicle: saline 108 % of control

Nc1nc2c(ncn2-c2ccc(OCCNC(=O)Nc3cccc(S(=O)(=O)F)c3)cc2)c(=O)[nH]1
inactive: [11] 104 % of control | [12] 96 % of control | [13] 90 % of control

CC(=O)/C=C/C=C\c1ccccc1
inactive: [4] 104 % of control | [6] 94 % of control | [8] 98 % of control

CC1COCC(C)N1 (stereo not given)
inactive: endpoint: mean survival time, dose: 100.0 mg/kg/injection, schedule: Q04DX003 (ip), vehicle: saline 96 % of control | endpoint: mean survival time, dose: 200.0 mg/kg/injection, schedule: Q04DX003 (ip), vehicle: saline 98 % of control | endpoint: mean survival time, dose: 400.0 mg/kg/injection, schedule: Q04DX003 (ip), vehicle: saline 96 % of control

CCOC(=O)c1cc(C(=O)OCC)c2ccc(Br)ccc1-2
inactive: endpoint: mean survival time, dose: 100.0 mg/kg/injection, schedule: Q01DX001 (sc), vehicle: olive oil, sesame oil, peanut oil 105 % of control | endpoint: mean survival time, dose: 200.0 mg/kg/injection, schedule: Q01DX001 (sc), vehicle: olive oil, sesame oil, peanut oil 96 % of control | endpoint: mean survival time, dose: 400.0 mg/kg/injection, schedule: Q01DX001 (sc), vehicle: olive oil, sesame oil, peanut oil 93 % of control

Nc1nc(NCCc2ccccc2)c2ncn(C3OC(CO)C(O)C3O)c2n1 (stereo not given)
inactive: endpoint: mean survival time, dose: 12.5 mg/kg/injection, schedule: Q01DX005 (ip), vehicle: other 102 % of control | endpoint: mean survival time, dose: 25.0 mg/kg/injection, schedule: Q01DX005 (ip), vehicle: other 98 % of control | endpoint: mean survival time, dose: 50.0 mg/kg/injection, schedule: Q01DX005 (ip), vehicle: other 104 % of control | endpoint: mean survival time, dose: 100.0 mg/kg/injection, schedule: Q01DX005 (ip), vehicle: other 108 % of control

COc1cc(Cl)ccc1NC(=O)OCCOc1cccc(C)c1
inactive: [10] 93 % of control | [4] 101 % of control | [6] 93 % of control

COc1ccc(/C(C)=N\NC(=O)c2ccccc2)cc1
inactive: [10] 91 % of control | [4] 94 % of control | [5] 98 % of control | [6] 89 % of control | [7] 104 % of control

C=CCCCCCCCCC(=O)NCCN1CCOCC1
inactive: [10] 100 % of control | [4] 96 % of control | [6] 88 % of control

Cc1cc(NC(=O)CCc2ccc(N)cc2)ccc1S(=O)(=O)F
inactive: endpoint: mean survival time, dose: 25.0 mg/kg/injection, schedule: Q01DX009 (ip), vehicle: Klucel (hydroxypropylcellulose) (HPC) 110 % of control | endpoint: mean survival time, dose: 50.0 mg/kg/injection, schedule: Q01DX009 (ip), vehicle: Klucel (hydroxypropylcellulose) (HPC) 98 % of control | endpoint: mean survival time, dose: 100.0 mg/kg/injection, schedule: Q01DX009 (ip), vehicle: Klucel (hydroxypropylcellulose) (HPC) 108 % of control | endpoint: mean survival time, dose: 200.0 mg/kg/injection, schedule: Q01DX009 (ip), vehicle: Klucel (hydroxypropylcellulose) (HPC) 94 % of control and 106 % of control

O=C(N/N=C/c1cccc([N+](=O)[O-])c1)c1ccccc1
inactive: [4] 107 % of control | [6] 102 % of control | [8] 94 % of control

O=C1c2cc([N+](=O)[O-])ccc2-c2cc(Br)ccc21
inactive: [5] 99 % of control | [7] 91 % of control

Clc1ccc(SCNc2ccccc2Cl)cc1
inactive: [11] 100 % of control | [12] 100 % of control | [13] 100 % of control
